The record followed here is PMC11243149, “Assessing the Effects of Thiazole-Carboxamide Derivatives on the Biophysical Properties of AMPA Receptor Complexes as a Potential Neuroprotective Agent” (Molecules, 2024).

This assay addresses T1, GluA1 (Homo sapiens, UniProt P42261).
T1 construct: expressed in transfected cells; host or cells: HEK293T
The assay can be described thus: Whole-cell patch-clamp recordings of homomeric GluA1 AMPAR in transfected HEK293T cells. The settings on record: for Amplitude (glutamate plus TC compound) / Amplitude, applying glutamate alone after TC compound / IC50 / A/AI / t deact / t des: GluA1; for Amplitude (glutamate plus TC compound): 10 mM glutamate + TC compound (12 µM optimal concentration), HEK293T, -60 mV, pH 7.4, 22 °C, mean ± SEM; for Amplitude (glutamate plus TC compound) / Amplitude, applying glutamate alone after TC compound: n = 10; for Amplitude, applying glutamate alone after TC compound: 10 mM glutamate alone after 20 s wash following the TC compound; for A/AI: ratio of current with glutamate alone (A) to inhibited current after TC compound (AI); for t deact: weighted tau of deactivation, 10 mM glutamate for 1 ms, glutamate alone 2.1±0.1; for t deact / t des: with TC compound; for t des: weighted tau of desensitization, 10 mM glutamate 500 ms, glutamate alone 2.5±0.1; for influence on τw des: GluA1 subunit. The assay is classed as cell-based. As to the method: The effect of five TC compounds on whole-cell currents of four AMPAR subunits (GluA1, GluA1/2, GluA2, and GluA2/3) was investigated using transfected HEK293T cells. Each compound was applied separately to each subunit, with experiments conducted on 8–10 cells per condition to ensure reproducibility. […] At a glutamate concentration of 10 mM and a 500 ms protocol, approximately 95% of AMPAR channels were open. The A/AI ratio was calculated to compare the results, where A represents normalized current readings and AI indicates the inhibited current following TC compound exposure. […] Following closely, TC-1 inhibited the tested subunits by 5-fold.
The IC50 values were examined using GraphPad Prism software 9.5.0.730 (x64) (Table S6), which confirmed these findings. The IC50 values of TC substances were calculated by standardizing the peak current amplitudes using data obtained from 8–10 cells. Following a 500 ms exposure to the compounds, the cells were rinsed with glutamate for 20 s. Next, a solution containing just glutamate at a concentration of 10 mM was administered, and the resulting immediate induced electrical current was measured and documented (Figure 3).
In addition, an evaluation was conducted on the deactivation rates (τw deact) of all the examined chemicals to investigate their impact on the kinetics of deactivation. The chemicals were assessed for their effect on the deactivation kinetics of AMPAR subunits by briefly administering 10 mM glutamate for 1 ms to begin currents. This experimental setup allowed for the observation of τw deact under controlled conditions. […] TC-5 induced an approximately 2-fold increase in τw deact across all four tested subunits. […] These findings highlight the differential impact of TC compounds on deactivation kinetics across AMPAR subunits, shedding light on their potential neuroprotective mechanisms.
The flip isoform was uniformly employed across all AMPAR subunits in this study. These subunits were subcloned into the pRK vector and expressed in Human Embryonic kidney cells sourced (Sigma, München, Germany). HEK293T cells were grown in Dulbecco Modified Eagle Medium (DMEM) (Sigma, München, Germany) containing 10% FBS (fetal bovine serum), 0.1 mg/mL streptomycin, and 1 mM sodium pyruvate (Biological Industries; Beit-Haemek, Israel). HEK293T cells were incubated at 37 °C and 5% CO2 was supplemented to the medium. It was subcultured twice a week until cells reached pass #20. The transfection reagent used was either jetPRIME (Polyplus: New York, NY, USA) or Lipofectamine 2000 (Invitrogen; San Diego, CA, USA). Cells were kept for 36 h. after transfection in 12-well plates. Then, they were replated on coverslips coated with Laminin (1 mg/mL; Sigma, Germany) for electrophysiology recordings. Cells were then seeded in Petri dishes in DMEM supplemented with 10% fetal calf serum and antibiotics and maintained in a humidified incubator at 37 °C and 5% CO2. Highly fluorescent cells were identified and selected for recording post-transfection.
HEK293T cells were recorded for 36–48 h, at a temperature of 22 °C, with a membrane potential of −60 mV. HEK293T cells were recorded 36–48 h after transfection using IPA (Integrated Patch Amplifier) via the […], at a temperature of 22 °C, with a membrane potential of −60 mV. SutterPatch Software v. 1.1.1 (Sutter Instruments, Novato, CA, USA) was used to digitize membrane currents for a short period. The sampling frequency was set to 10 kHz, and the low-pass filter was set to 2 kHz. Borosilicate glass was used to fabricate the patch electrodes with a resistance of 2–4 MΩ. The extracellular solution contained the following (values are in mM): 150 NaCl, 2.8 KCl, 0.5 MgCl2, 2 CaCl2, and 10 HEPES, adjusted to pH 7.4 with NaOH. The pipette solution contained the following (values are in mM): 110 CsF, 30 CsCl, 4 NaCl, 0.5 CaCl2, 10 […], and 10 HEPES, adjusted to pH 7.2 with CsOH. […]
A general note: Patch clamp records ionic current or voltage across a cell membrane.

Setting [1] is: Table S6, peak current amplitudes, 8-10 cells, GraphPad Prism fit, read-out: IC50.
[2] abbreviates: Table S6, read-out: Log IC50 (converted).

SMILES strings stand for the structures. Like-named read-outs stand apart in the source and are kept apart here.

The term IC50 denotes the midpoint of a concentration-inhibition curve.

T1 sequence (P42261 19-906 isoform P42261-2 limits assumed, species assumed): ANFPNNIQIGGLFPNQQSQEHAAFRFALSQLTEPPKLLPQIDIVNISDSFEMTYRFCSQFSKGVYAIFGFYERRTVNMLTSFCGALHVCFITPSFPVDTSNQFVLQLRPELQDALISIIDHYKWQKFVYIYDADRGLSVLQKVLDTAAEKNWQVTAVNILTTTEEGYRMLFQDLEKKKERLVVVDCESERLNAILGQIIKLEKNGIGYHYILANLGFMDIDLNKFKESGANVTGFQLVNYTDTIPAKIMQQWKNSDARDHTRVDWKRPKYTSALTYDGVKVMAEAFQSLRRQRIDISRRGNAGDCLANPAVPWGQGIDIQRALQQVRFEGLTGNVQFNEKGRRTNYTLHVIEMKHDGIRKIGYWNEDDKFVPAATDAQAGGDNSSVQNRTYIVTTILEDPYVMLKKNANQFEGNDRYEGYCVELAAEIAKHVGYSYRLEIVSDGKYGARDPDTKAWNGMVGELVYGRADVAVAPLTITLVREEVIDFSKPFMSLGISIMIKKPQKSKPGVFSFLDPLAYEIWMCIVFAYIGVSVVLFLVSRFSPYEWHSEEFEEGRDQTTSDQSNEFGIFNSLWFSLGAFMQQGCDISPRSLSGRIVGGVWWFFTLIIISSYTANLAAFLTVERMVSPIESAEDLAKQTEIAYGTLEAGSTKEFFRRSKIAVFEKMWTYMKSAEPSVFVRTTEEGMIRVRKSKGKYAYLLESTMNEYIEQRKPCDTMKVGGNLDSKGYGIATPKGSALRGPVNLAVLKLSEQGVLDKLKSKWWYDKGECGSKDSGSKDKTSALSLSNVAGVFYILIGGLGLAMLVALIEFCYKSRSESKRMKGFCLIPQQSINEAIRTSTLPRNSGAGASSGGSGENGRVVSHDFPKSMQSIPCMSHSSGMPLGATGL

For `COc1ccc(-c2nc(C(=O)Nc3ccc(OC)c(OC)c3)cs2)cc1` [TC-1], the “Amplitude (glutamate plus TC compound)” value is given as 177±20 pA; the “Amplitude, applying glutamate alone after TC compound” value (from here on “Amplitude, applying glutamate alone”) came out at 848±82 pA; the A/AI worked out at 4.91±0.1; the t deact amounted to 5.3 ± 0.4 ms. Besides, the t des is 1.3 ± 0.1 ms. Moreover, the IC50 under setting [1] was found to be 3.42 µM. Moreover, the IC50 under setting [2] is 3.39 µM.

Consider `COc1ccc(-c2nc(C(=O)Nc3ccccc3)cs2)cc1` [TC-3], for which the “Amplitude (glutamate plus TC compound)” value came to 287±38 pA; the “Amplitude, applying glutamate alone” value is given as 799±95 pA; the A/AI worked out at 2.97±0.03; the t deact was 3.0 ± 0.2 ms. Moreover, the t des is 2.0 ± 0.1 ms and the “influence on τw des” value is listed as “negligible”. Further, the IC50 under setting [1] is 5.73 µM. Moreover, the IC50 under setting [2] is 5.75 µM.

In the case of `COc1ccc(-c2nc(C(=O)Nc3ccc(C(C)(C)C)cc3)cs2)cc1` [TC-4], the “Amplitude (glutamate plus TC compound)” value came out at 331±50 pA; the “Amplitude, applying glutamate alone” value came out at 816±114 pA; the A/AI came out at 2.53±0.02; the t deact stood at 2.9 ± 0.1 ms. The t des worked out at 2.1 ± 0.1 ms and the “influence on τw des” value is recorded as “negligible”. For the same compound, the IC50 under setting [1] turned out to be 5.88 µM. In addition, the IC50 under setting [2] is 5.89 µM.
